# Like-named read-outs stand apart in the source and are kept apart here.
# How the values were obtained:
# [1] = molecular target: BTK kinase (Homo sapiens (Human), UniProt Q06187); experiment: In vitro assay for the inhibition of BTK kinase activity (Mobility-Shift Assay); assay type: biochemical
# Outline: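 Fluorescently labelled peptide substrate converted by the kinase; substrate and phosphorylated product separated by charge on a microfluidic chip (mobility shift) and quantified separately. Results expressed as conversion rate; control wells received 100% DMSO.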
# [2] = tested on: DOHH2 cells; experiment: Cell proliferation inhibition in vitro, DOHH2 cells by CTG assay; assay type: cell-based; conditions: read-out: Inhibitions of cell activities IC50 (nM) DOHH2
# Experimental: (§1) Test Example 2: Determination of the Inhibition of Cell Proliferation Inhibitory Activity in
# (§2) vitro of compounds using different cell lines
# (§3) 2: Preparation of the Compounds:
# (§4) The compounds to be tested were diluted with DMSO to prepare a mother liquor at a final concentration of 10 mM for later use.
# 3.2 Test of DOHH2 Cells by CTG Assay
# (§5) Logarithmic growth phase cells were collected, counted and resuspended in complete medium. The cell concentration was adjusted to a suitable concentration (determined according to the cell density optimization test results), and seeded to 96-well plate and 100 μl of the cell suspension was added to each well. The cells were incubated in an incubator at 37° C., 100% relative humidity and 5% C02 for 24 hours.
# The compounds to be tested were diluted with the medium to the set corresponding action concentration, and the cells were added at 10 µl/well. The cells were incubated in an incubator set at 37° C., 100% relative humidity and 5% C02 for 72 hours.
# The medium was aspirated and discarded, and 30 μl of test reagent was added. The plate was gentle shaken away from the light to lyse the cells.
# (§6) As: OA of the sample (cell+test reagent+test compound)
# (§7) Ac: OA of the negative control (cell+test reagent+DMSO)
# (§8) Ab: OA of the positive control (medium+test reagent+DMSO)
# (§9) IC50 curve fitting was performed using the software Graphpad Prism 5 or XLfit and IC50 values were calculated.
# [3] = tested on: TMD8 cells; experiment: Cell proliferation inhibition in vitro, TMD8 cells by CCK-8 method; assay type: cell-based; conditions: 72 hours, read-out: Inhibitions of cell activities IC50 (nM) TMD8
# Experimental: as §1, §2, §3, §4
# (§10) 3.1. Test of TMD8 and OCI-ly10 Cells by CCK-8 Method
# as §5
# (§11) The compounds to be tested were diluted with the medium to the set corresponding action concentration, and the cells were added at 25 µl/well. The cells were incubated in an incubator at 37° C., 100% relative humidity and 5% C02 for 72 hours.
# (§12) The medium was aspirated and discarded, and a complete medium containing 10% of the test reagent was added and the obtained system was incubated in a 37° C. incubator for 1 hour-4 hours.
# as §6, §7, §8, §9
# [4] = tested on: OCI-LY10 cells; experiment: Cell proliferation inhibition in vitro, OCI-ly10 cells by CCK-8 method; assay type: cell-based; conditions: 72 hours, read-out: Inhibitions of cell activities IC50 (nM) OCI-LY10
# Experimental: as §1, §2, §3, §4, §10, §5, §11, §12, §6, §7, §8, §9
# [5] = molecular target: hERG potassium channel (Homo sapiens (Human), UniProt Q12809); experiment: hERG experiment to investigate potential cardiotoxicity (manual patch clamp, CHO hERG cells); assay type: cell-based; conditions: whole cell patch clamp, tail current
# Experimental: CHO hERG cells were grown in a culture dish containing the above medium, and cultured in an incubator at 37° C. and 5% CO2. CHO hERG cells were transferred to circular glass slides placed in the culture dish 24-48 hours prior to electrophysiological experiments and grown under the same medium and culture conditions as above. The density of CHO hERG cells on each circular slide shall meet the requirement that most of the cells are independent and individual.
# 2: Preparation of Experimental Solutions
# 3: Electrophysiological Recording System
# A manual patch clamp system (HEKA EPC-10 signal amplifier and digital conversion system, purchased from HEKA Electronics, Germany) is used in this experiment for whole cell currents recording. A circular slide with CHO hERG cells grown on its surface was placed in an electrophysiology recording tank under an inverted microscope. The extracellular fluid was continuously perfused in the recording tank (about 1 ml per minute). A conventional whole cell patch clamp current recording technique was used in the experimental procedure. Unless otherwise specified, the experiments were carried out at conventional room temperature (about 25° C.). The cells were clamped at a voltage of −80 mV. The clamp voltage for cells was depolarized to +20 mV to activate the hERG potassium channel, and after 5 seconds, the cells were clamped to −50 mV to eliminate inactivation and generate a tail current. The tail current peak was used as the value of the hERG current magnitude. After the hERG potassium current recorded in the above step was stable under the continuous extracellular fluid perfusion in the recording tank, the drug to be tested can be perfused simultaneously and filled until the inhibitory effect of the drug on the hERG current reached a steady state. Generally, the superposition of the last three consecutive current recording lines was used as a criterion for judging whether or not the state was stable. After reaching a steady state, a wash with extracellular fluid perfusion was conducted until the hERG returned to that before the drug was added. One cell can be used to test one or more drugs, or multiple concentrations of the same drug, but need to be washed with an extracellular fluid between different drugs. Cisapride (purchased from Sigma) was used as a positive control in the experiment to ensure that the cells used were of normal quality.
# 4: Treatment and Dilution of Compounds
# Prior to testing, the compounds were first diluted to 10, 3, 1, 0.3, and 0.1 mM stock solutions by a method of gradual dilution with DMSO, and were then diluted to the final M test concentration with extracellular fluids. The final concentration of DMSO in each of the other compound solutions was 0.1%, except that the DMSO concentration in the 30 μM compound test solution was 0.3%. The test concentration of the positive control (Cisapride) was 0.1 μM. All compound solutions were sonicated and shaken for a routine of 5 to 10 minutes to ensure complete dissolution of the compounds.
# The test data were analyzed by HEKA Patchmaster, Microsoft Excel and data analysis software provided by Graphpad Prism.
# [6] = Pharmacokinetic test in SD rats (oral 10 mg/kg, intravenous 1 mg/kg); assay type: in vivo; conditions: SD rat; for F (po) %: oral 10 mg/kg vs intravenous 1 mg/kg; for clearance / half-life / AUC / Cmax / Tmax: male, plasma; for clearance / half-life: intravenous 1 mg/kg; for clearance: read-out: Cl (iv) (converted); for half-life: read-out: T½ (iv) h (converted); for AUC / Cmax / Tmax: oral 10 mg/kg
# Experimental: SD rat, male (purchased from Shanghai Sippr-Bk Laboratory Animal Co., Ltd.), each tested compound was administered at a single dose to SD rats by oral administration (10 mg/kg, 3 rats in each group) and intravenous administration (1 mg/kg, 3 rats in each group) for the pharmacokinetic study. The tested compounds were dissolved using DMSO/[…] sodium chloride injection=5/95 (V/V), and vortexed for 1 minute, and after 1 minute of sonication, the compounds were formulated into solutions for administrations. Animals were fasted for 16-17 hours prior to oral administration and feeding was restored 4 hours after administration. After oral and intravenous administration, pharmacokinetic samples were collected from SD rats by jugular vein or cardiac puncture at the following time points: before administration, 5 minute, 15 minute, 30 minute, 1 hour, 2 hours, 4 hours, 6 hours, 8 hours and 24 hours after administration. 3 whole blood samples were collected at each time point, and the collected amount was about 0.2 mL, and the collected samples were anticoagulated by heparin sodium. After collection, the blood samples were immediately placed on ice and centrifuged to separate plasma within 30 minutes (centrifugation conditions: 8000 rpm, 6 minute, 2-8° C.). The collected plasma was stored at −70° C. prior to analysis. 50 μL of plasma sample was brought into a 1.5 mL centrifuge tube, 250 μL of internal standard solution (blank with no internal standard but the same volume of methanol added) was added, blended with vortex, centrifuged at 15000 rpm for 5 minutes. 200 μL of supernatant was taken and added to a 96-well sample plate and the samples were analyzed by LC-MS/MS.
# Chain of hERG potassium channel (Q12809 whole entry): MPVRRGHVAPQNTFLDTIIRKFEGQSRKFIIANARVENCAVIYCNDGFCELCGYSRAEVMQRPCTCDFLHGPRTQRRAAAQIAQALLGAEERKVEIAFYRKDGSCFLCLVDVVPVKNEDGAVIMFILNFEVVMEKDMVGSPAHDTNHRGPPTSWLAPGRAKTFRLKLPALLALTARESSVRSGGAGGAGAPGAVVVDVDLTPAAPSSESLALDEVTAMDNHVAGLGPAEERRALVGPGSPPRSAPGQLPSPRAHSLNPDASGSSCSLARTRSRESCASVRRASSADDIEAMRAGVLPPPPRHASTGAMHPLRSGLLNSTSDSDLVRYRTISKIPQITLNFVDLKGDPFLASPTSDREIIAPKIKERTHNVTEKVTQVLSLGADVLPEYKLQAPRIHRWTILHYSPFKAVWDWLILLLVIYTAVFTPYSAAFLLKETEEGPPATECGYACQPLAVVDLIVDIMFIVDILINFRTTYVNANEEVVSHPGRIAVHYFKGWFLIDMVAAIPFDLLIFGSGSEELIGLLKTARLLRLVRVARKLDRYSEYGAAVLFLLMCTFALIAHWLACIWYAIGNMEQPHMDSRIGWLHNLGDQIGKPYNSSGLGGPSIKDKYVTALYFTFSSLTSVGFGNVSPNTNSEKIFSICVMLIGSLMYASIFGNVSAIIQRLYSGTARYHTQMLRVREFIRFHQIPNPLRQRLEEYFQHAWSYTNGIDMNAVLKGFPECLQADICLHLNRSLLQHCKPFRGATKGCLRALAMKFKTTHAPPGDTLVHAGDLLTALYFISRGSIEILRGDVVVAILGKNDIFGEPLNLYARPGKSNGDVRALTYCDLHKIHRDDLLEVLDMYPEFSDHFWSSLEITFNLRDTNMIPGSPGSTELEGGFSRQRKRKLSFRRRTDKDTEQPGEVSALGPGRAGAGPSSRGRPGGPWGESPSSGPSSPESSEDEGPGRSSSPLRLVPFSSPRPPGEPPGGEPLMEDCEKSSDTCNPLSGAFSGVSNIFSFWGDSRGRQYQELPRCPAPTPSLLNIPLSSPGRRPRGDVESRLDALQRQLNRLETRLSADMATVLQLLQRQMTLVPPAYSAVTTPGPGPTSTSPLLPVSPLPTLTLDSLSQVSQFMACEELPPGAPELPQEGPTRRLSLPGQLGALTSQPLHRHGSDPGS
# Chain of BTK kinase (Q06187 whole entry): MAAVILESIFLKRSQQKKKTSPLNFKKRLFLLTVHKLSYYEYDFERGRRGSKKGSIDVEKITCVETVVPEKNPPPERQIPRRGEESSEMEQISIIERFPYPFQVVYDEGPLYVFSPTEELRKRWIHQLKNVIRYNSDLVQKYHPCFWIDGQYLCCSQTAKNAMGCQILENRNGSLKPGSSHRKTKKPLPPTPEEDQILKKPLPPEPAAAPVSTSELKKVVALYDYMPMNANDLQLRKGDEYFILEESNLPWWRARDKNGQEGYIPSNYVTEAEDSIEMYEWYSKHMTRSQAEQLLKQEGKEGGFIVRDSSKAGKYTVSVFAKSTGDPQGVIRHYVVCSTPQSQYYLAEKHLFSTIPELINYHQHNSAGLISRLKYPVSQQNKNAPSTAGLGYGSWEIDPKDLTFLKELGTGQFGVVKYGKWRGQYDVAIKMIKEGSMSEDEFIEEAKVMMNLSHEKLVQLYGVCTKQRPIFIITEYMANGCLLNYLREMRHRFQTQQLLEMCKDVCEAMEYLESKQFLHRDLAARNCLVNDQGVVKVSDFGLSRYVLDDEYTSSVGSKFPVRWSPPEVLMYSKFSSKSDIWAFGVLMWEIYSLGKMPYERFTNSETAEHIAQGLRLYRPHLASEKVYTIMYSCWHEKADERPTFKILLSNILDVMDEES
SMILES,IC50 [1] [nM],"IC50 ([2]; Homo sapiens, DOHH-2, 72 hours) [nM]",IC50 ([3]; Homo sapiens) [nM],IC50 ([4]; Homo sapiens) [nM],IC50 [5] [nM],F (po) % [6] [%],clearance [6] [mL/min/kg],half-life [6] [min],AUC [6] [ng·h/mL],Cmax [6] [ng/mL],Tmax [6] [min],IC50 ([2]; 72 hours) [nM],IC50 [3] [nM],IC50 [4] [nM]
C=CC(=O)N1C2CC[C@@H](C2)C1c1nc(-c2ccc(C(C)(O)c3ccccc3)cc2)c2c(N)nccn12 (stereo partly shown) [Example 79],4.9,164,1.2,0.13,> 30000,27.12,57.5,31.2,770,1110,12.6,–,–,–
C=CC(=O)N1CC2CCCC2C1c1nc(-c2ccc(C(=O)Nc3ccccn3)cc2)c2c(N)nccn12 (stereo not shown) [Example 3],–,191,0.26,0.24,> 30000,52.55,57,37.2,1490,1620,16.2,–,–,–
C=CC(=O)N1CC2CCCC2[C@H]1c1nc(-c2ccc(Oc3ccccc3)cc2)c2c(N)nccn12 (stereo partly shown) [Example 96],–,–,–,–,> 30000,–,–,–,–,–,–,–,–,–
C=CC(=O)N1CC2CCCC2C1c1nc(-c2ccc(Oc3ccccc3)cc2)c2c(N)nccn12 (stereo not shown) [Example 96],3.1,200,3.2,0.34,–,34.53,32.7,33,1580,1590,21.6,–,–,–
C=CC(=O)N1C2C[C@@H](C1c1nc(-c3ccc(C(=O)Nc4ccccn4)cc3)c3c(N)nccn13)N(C(C)=O)C2 (stereo partly shown) [Example 18],1.4,177,1.6,0.25,> 30000,–,–,–,–,–,–,–,–,–
"CN(C)C/C=C/C(=O)N1CC2CCCC2[C@H]1c1nc(-c2ccc(C(=O)Nc3ccccn3)cc2)c2c(N)nccn12 (stereo partly drawn) [Example 113, 4-(8-amino-3-((1S)-2-((E)-4-(dimethylamino)-2-butenoyl)octahydrocyclopenta [c]pyrrol-1-yl)imidazo[1,5-a]pyrazin-1-yl)-N-(pyridin-2-yl)benzamide]",4.6,> 1000,12.5,7.4,–,–,–,–,–,–,–,–,–,–
C=CC(=O)N1C2C[C@@H](C1c1nc(-c3ccc(C(=O)Nc4ccccn4)cc3)c3c(N)nccn13)N(C(C)C)C2 (stereo partly shown) [Example 16],9.5,> 1000,1.6,3.1,–,–,–,–,–,–,–,–,–,–
"C=CC(=O)N1CCC[C@@H](n2nc(-c3ccc(Oc4ccccc4)cc3)c3c(N)ncnc32)C1 [Ibrutinib, reference compound]",–,705,0.28,0.41,–,2.67,–,–,218,217,19.8,–,–,–
C=CC(=O)N1C2C[C@@H](C1c1nc(-c3ccc(Oc4ccccc4)cc3)c3c(N)nccn13)N(C(C)C)C2 (stereo partly shown) [Example 109],19,184,7.2,0.31,–,–,–,–,–,–,–,–,–,–
CC#CC(=O)N1CC2CCCC2C1c1nc(-c2ccc(Oc3ccccc3)cc2)c2c(N)nccn12 (stereo not shown) [Example 97],2.8,> 1000,6.2,0.4,–,–,–,–,–,–,–,–,–,–
C=CC(=O)N1C2CN[C@@H](C2)C1c1nc(-c2ccc(C(=O)Nc3cc(C(F)(F)F)ccn3)cc2)c2c(N)nccn12 (stereo partly shown) [Example 52],2.4,174,6.4,0.35,–,–,–,–,–,–,–,–,–,–
"C=CC(=O)N1C(c2nc(-c3ccc(C(=O)Nc4ccccn4)cc3)c3c(N)nccn23)[C@@H]2C[C@H]1CN2C(=O)OC(C)(C)C (stereo partly drawn) [Example 126, (1 S,4S)-tert-butyl-5-acryloyl-6-(8-amino-1-(4-(pyridin-2-carbamoyl)phenyl)imidazo[1,5-a]pyrazin-3-yl)-2,5-diazabicyclo[2.2.1]heptane-2-carboxylate]",4.4,–,–,–,–,–,–,–,–,–,–,206,1.6,0.8
CC#CC(=O)N1C2CN[C@@H](C2)C1c1nc(-c2ccc(C(=O)Nc3ccccn3)cc2)c2c(N)nccn12 (stereo partly shown) [Example 14],12.5,> 1000,7.5,1.8,–,–,–,–,–,–,–,–,–,–
CC#CC(=O)N1C2CCC1(c1nc(-c3ccc(C(=O)Nc4cc(C(F)(F)F)ccn4)cc3)c3c(N)nccn13)COC2 (stereo not shown) [Example 49],4.8,436,6.4,3.4,–,–,–,–,–,–,–,–,–,–
"CC#CC(=O)N1CCC[C@H]1c1nc(-c2ccc(C(=O)Nc3ccccn3)cc2)c2c(N)nccn12 [ACP-196, reference compound]",–,> 1000,1.3,1.4,–,19.75,125,7.8,266,266,4.8,–,–,–
C=CC(=O)N1C2CN[C@@H](C2)C1c1nc(-c2ccc(Oc3ccccc3)cc2)c2c(N)nccn12 (stereo partly shown) [Example 106],47,> 1000,21.4,0.78,–,–,–,–,–,–,–,–,–,–
C=CC(=O)N1C2CC[C@@H](C2)C1c1nc(-c2ccc(C(=O)Nc3cc(C)ccn3)cc2)c2c(N)nccn12 (stereo partly shown) [Example 62],13,179,2.8,3.9,–,–,–,–,–,–,–,–,–,–
C=CC(=O)N1C2CC[C@@H](C2)C1c1nc(-c2ccc(C(=O)Nc3cc(C(F)(F)F)ccn3)cc2)c2c(N)nccn12 (stereo partly shown) [Example 46],4.2,94.3,3.4,0.37,–,–,–,–,–,–,–,–,–,–
